From patent US20250353891A1 (MEDIMMUNE LIMITED, priority 2022, published 2025) come the findings set out here.

Starred links: 1 amine or outer side, 2 acyl side, 3 side chain; linkers in the order of their positions; H or OH if unused. Non-standard residues stand in square brackets, D forms with d. Residues, ends and D or L forms follow the SMILES beside them. Groups on a side chain read outwards from the residue. *: point of attachment. C20 diacid = O=C(O)CCCCCCCCCCCCCCCCCCC(=O)*; X2 = CC(C)(CC(N)=O)[C@H](N[*:1])C(=O)[*:2]; C18 diacid = O=C(O)CCCCCCCCCCCCCCCCC(=O)*; γGlu = O=C(O)[C@H](CCC(=O)[*:2])N[*:1]; X3 = O=C(CN(Cc1c[nH]cn1)[*:1])[*:2]; αMeF = C[C@](N)(Cc1ccccc1)C(=O)O; AEEA = NCCOCCOCC(=O)O; Aib = CC(C)(N)C(=O)O

The assay addresses human GLP-1 receptor (hGLP-1R) (Homo sapiens, UniProt P43220). In words: cAMP production (HTRF) in CHO cells expressing hGLP-1R. Set-up: expressed in transfected cells. To be noted: for % Relative Potency Ratio: % GLP-1R activity relative to GLP-1 / % GlucR activity relative to glucagon. It is filed as cell-based. The protocol: Cells were re-suspended in assay buffer at a batch-dependent optimized concentration (typically hGLP-1R cells at 1×10^5 cells/mL, hGCGR cells at 2×10^5 cells/mL).
Cells were added to the assay plate using a multidrop dispenser and incubated at room temperature for 30 minutes before measuring the cAMP level using a cAMP dynamic 2 homogeneous time resolved Fluorescence (HTRF) kit (Cisbio Bioassays #62AM4PEJ) following the two-step protocol as per manufacturer's recommendations. In brief, anti-cAMP cryptate (donor fluorophore) and cAMP-d2 (acceptor fluorophore) were made up separately by diluting each 1 in 20 in conjugate and lysis buffer provided in the kit. Anti-CAMP cryptate was added to all wells of the assay plate, followed by cAMP-d2 added to all wells except non-specific binding (NSB) wells (to which conjugate and lysis buffer was added).
Data was transformed to % Delta F as described in the manufacturer's guidelines and analyzed by 4-parameter logistic fit to determine EC50 values.
For orientation: Changes in cAMP serve as a functional read-out for many G protein-coupled receptors.

human GLP-1 receptor (hGLP-1R), sequence (P43220 24-463): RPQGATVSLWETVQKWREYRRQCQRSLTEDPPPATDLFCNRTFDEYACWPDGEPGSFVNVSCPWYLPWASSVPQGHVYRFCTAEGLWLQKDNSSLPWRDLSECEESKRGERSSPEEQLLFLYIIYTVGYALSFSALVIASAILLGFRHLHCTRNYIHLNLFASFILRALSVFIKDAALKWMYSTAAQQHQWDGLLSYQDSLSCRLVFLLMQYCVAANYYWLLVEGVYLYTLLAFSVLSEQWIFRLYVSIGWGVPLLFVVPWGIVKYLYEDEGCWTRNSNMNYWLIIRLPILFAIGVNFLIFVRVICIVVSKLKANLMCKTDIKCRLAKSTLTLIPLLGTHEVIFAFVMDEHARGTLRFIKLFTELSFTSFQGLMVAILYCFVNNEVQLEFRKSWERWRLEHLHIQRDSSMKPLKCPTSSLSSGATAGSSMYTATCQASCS

For the molecule `CC[C@H](C)[C@H](NC(=O)[C@H](Cc1c[nH]c2ccccc12)NC(=O)[C@H](C)NC(=O)[C@@H](NC(=O)[C@](C)(Cc1ccccc1)NC(=O)[C@H](CC(=O)O)NC(=O)[C@H](CCCCNC(=O)COCCOCCNC(=O)COCCOCCNC(=O)CC[C@H](NC(=O)CCCCCCCCCCCCCCCCC(=O)O)C(=O)O)NC(=O)[C@H](C)NC(=O)[C@H](C)NC(=O)[C@H](CCCNC(=N)N)NC(=O)[C@H](CO)NC(=O)[C@H](CC(=O)O)NC(=O)[C@H](CC(C)C)NC(=O)[C@](C)(Cc1ccccc1)NC(=O)[C@H](CCCCN)NC(=O)[C@H](CO)NC(=O)[C@@H](NC(=O)[C@H](CC(=O)O)NC(=O)[C@H](CO)NC(=O)[C@@H](NC(=O)[C@](C)(Cc1ccccc1)NC(=O)[C@H](CO)NC(=O)CNC(=O)[C@H](Cc1c[nH]cn1)NC(=O)C(C)(C)NC(=O)[C@@H](N)Cc1c[nH]cn1)[C@@H](C)O)C(C)C)[C@@H](C)CC)C(=O)N[C@@H](C)C(=O)N[C@@H](CC(N)=O)C(=O)N[C@H](C(N)=O)[C@@H](C)O` [Peptide 230] (H-H[Aib]HGS[αMeF]TSDVSK[αMeF]LDSRAAK([AEEA-AEEA-γGlu-C18 diacid])D[αMeF]IAWIANT-NH2), where the note is “Table 7”, the “% Relative Potency Ratio” value is 0.4. Consider `CC[C@H](C)[C@H](NC(=O)C(C)(C)NC(=O)[C@H](CCC(N)=O)NC(=O)[C@@H](NC(=O)[C@](C)(Cc1ccccc1)NC(=O)[C@H](CC(=O)O)NC(=O)[C@H](CCCCNC(=O)COCCOCCNC(=O)COCCOCCNC(=O)CC[C@H](NC(=O)CCCCCCCCCCCCCCCCC(=O)O)C(=O)O)NC(=O)[C@H](C)NC(=O)[C@H](C)NC(=O)[C@H](CCCNC(=N)N)NC(=O)[C@H](CO)NC(=O)[C@H](CC(=O)O)NC(=O)[C@H](CC(C)C)NC(=O)[C@](C)(Cc1ccccc1)NC(=O)[C@H](CCCCN)NC(=O)[C@H](CO)NC(=O)[C@@H](NC(=O)[C@H](CC(=O)O)NC(=O)[C@H](CO)NC(=O)[C@@H](NC(=O)[C@](C)(Cc1ccccc1)NC(=O)[C@H](CO)NC(=O)CNC(=O)[C@@H](NC(=O)[C@H](CO)NC(=O)[C@@H](N)Cc1c[nH]cn1)C(C)(C)CC(N)=O)[C@@H](C)O)C(C)C)C(C)C)C(=O)N[C@@H](C)C(=O)N[C@@H](CC(N)=O)C(=O)N[C@H](C(N)=O)[C@@H](C)O` [Peptide 324] (H-HS[X2]GS[αMeF]TSDVSK[αMeF]LDSRAAK([AEEA-AEEA-γGlu-C18 diacid])D[αMeF]VQ[Aib]IANT-NH2; N-terminus assumed), for which the “% Relative Potency Ratio” value (Table 7) is listed as 2.9.

Regarding `CC[C@H](C)[C@H](NC(=O)[C@H](Cc1c[nH]c2ccccc12)NC(=O)[C@H](CCCCNC(=O)CC[C@H](NC(=O)CC[C@H](NC(=O)CCOCCOCCNC(=O)CC[C@H](NC(=O)CC[C@H](NC(=O)CCCCCCCCCCCCCCCCCCC(=O)O)C(=O)O)C(=O)O)C(=O)O)C(=O)O)NC(=O)[C@@H](NC(=O)[C@H](Cc1ccccc1)NC(=O)[C@H](CC(=O)O)NC(=O)[C@H](CCC(N)=O)NC(=O)[C@H](C)NC(=O)[C@H](C)NC(=O)[C@H](CCC(N)=O)NC(=O)[C@H](CO)NC(=O)[C@H](CC(=O)O)NC(=O)[C@H](CC(C)C)NC(=O)[C@](C)(Cc1ccccc1)NC(=O)[C@H](CCCCN)NC(=O)[C@H](CO)NC(=O)[C@@H](NC(=O)[C@H](CC(=O)O)NC(=O)[C@H](CO)NC(=O)[C@@H](NC(=O)[C@](C)(Cc1ccccc1)NC(=O)[C@H](CO)NC(=O)CNC(=O)[C@H](Cc1c[nH]cn1)NC(=O)C(C)(C)NC(=O)[C@@H](N)Cc1c[nH]cn1)[C@@H](C)O)C(C)C)C(C)C)C(=O)N[C@@H](C)C(=O)N[C@@H](CC(N)=O)C(=O)N[C@H](C(N)=O)[C@@H](C)O` [Peptide 357], the “% Relative Potency Ratio” value came out at 1.2. Turning to `CC[C@H](C)[C@H](NC(=O)[C@H](Cc1c[nH]c2ccccc12)NC(=O)[C@H](CCCCNC(=O)COCCOCCNC(=O)COCCOCCNC(=O)CC[C@H](NC(=O)CC[C@H](NC(=O)CCCCCCCCCCCCCCCCCCC(=O)O)C(=O)O)C(=O)O)NC(=O)[C@@H](NC(=O)[C@H](Cc1ccccc1)NC(=O)[C@H](CC(=O)O)NC(=O)[C@H](CCC(N)=O)NC(=O)[C@H](C)NC(=O)[C@H](C)NC(=O)[C@H](CCCNC(=N)N)NC(=O)[C@H](CO)NC(=O)[C@H](CC(=O)O)NC(=O)[C@H](CC(C)C)NC(=O)[C@](C)(Cc1ccccc1)NC(=O)[C@H](CCCCN)NC(=O)[C@H](CO)NC(=O)[C@@H](NC(=O)[C@H](CC(=O)O)NC(=O)[C@H](CO)NC(=O)[C@@H](NC(=O)[C@](C)(Cc1ccccc1)NC(=O)[C@H](CO)NC(=O)CNC(=O)[C@H](Cc1c[nH]cn1)NC(=O)[C@H](CO)NC(=O)CNCc1c[nH]cn1)[C@@H](C)O)C(C)C)C(C)C)C(=O)N[C@@H](C)C(=O)N[C@@H](CC(N)=O)C(=O)N[C@H](C(N)=O)[C@@H](C)O` [Peptide 380] (H-[X3]SHGS[αMeF]TSDVSK[αMeF]LDSRAAQDFVK([AEEA-AEEA-γGlu-γGlu-C20 diacid])WIANT-NH2), the “% Relative Potency Ratio” value is 33.9. Same read-out and setting: next, `CCCCCCCCCCCCCCCCCC(=O)N[C@@H](CCC(=O)N[C@@H](CCC(=O)NCCOCCOCCC(=O)NCCOCCOCCC(=O)NCCCC[C@H](NC(=O)[C@H](CC(=O)O)NC(=O)[C@H](CO)NC(=O)[C@@H](NC(=O)[C@](C)(Cc1ccccc1)NC(=O)[C@H](CO)NC(=O)CNC(=O)[C@H](CCC(N)=O)NC(=O)[C@H](CO)NC(=O)[C@@H](N)Cc1c[nH]cn1)[C@@H](C)O)C(=O)N[C@@H](CO)C(=O)N[C@@H](CCCCN)C(=O)N[C@H](C(=O)N[C@@H](CC(C)C)C(=O)N[C@@H](CC(=O)O)C(=O)N[C@@H](CO)C(=O)N[C@H](C(=O)N[C@@H](C)C(=O)N[C@@H](C)C(=O)N[C@@H](CCC(N)=O)C(=O)N[C@@H](CC(=O)O)C(=O)N[C@@](C)(Cc1ccccc1)C(=O)N[C@H](C(=O)N[C@@H](CCC(=O)O)C(=O)NC(C)(C)C(=O)N[C@@H](CC(C)C)C(=O)N[C@@H](C)C(=O)N[C@@H](CC(N)=O)C(=O)N[C@H](C(N)=O)[C@@H](C)O)C(C)C)C(C)(C)CCNC(=N)N)C(c1ccccc1)c1ccccc1)C(=O)O)C(=O)O` [Peptide 393, HSQGS(αMePhe)TSDK((PEG)2-(PEG)2-γE-yE-Stearoyl)10SK(Dip)LDS(β-dimethylArg)AAQD(αMePhe)VE(Aib)LANT-amide]: 9.3. Turning to `CC(C)C[C@H](NC(=O)[C@H](Cc1c[nH]c2ccccc12)NC(=O)[C@H](CCCNC(=N)N)NC(=O)[C@@H](NC(=O)[C@H](Cc1ccccc1)NC(=O)[C@H](CC(=O)O)NC(=O)[C@H](CCC(N)=O)NC(=O)[C@H](C)NC(=O)[C@H](CCCNC(=N)N)NC(=O)[C@H](CCCCNC(=O)COCCOCCNC(=O)COCCOCCNC(=O)CC[C@H](NC(=O)CCCCCCCCCCCCCCCCCCC(=O)O)C(=O)O)NC(=O)[C@@H](NC(=O)[C@H](CC(=O)O)NC(=O)[C@H](CC(C)C)NC(=O)[C@](C)(Cc1ccccc1)NC(=O)[C@H](CCCCN)NC(=O)[C@H](CO)NC(=O)[C@@H](NC(=O)[C@H](CC(=O)O)NC(=O)[C@H](CO)NC(=O)[C@@H](NC(=O)[C@H](Cc1ccccc1)NC(=O)[C@@H](NC(=O)CNC(=O)[C@H](CCC(N)=O)NC(=O)C(C)(C)NC(=O)[C@@H](N)Cc1c[nH]cn1)[C@@H](C)O)[C@@H](C)O)C(C)C)[C@@H](C)O)C(C)C)C(=O)N[C@@H](CCC(=O)O)C(=O)N[C@@H](C)C(=O)NC(C)(C)C(=O)NCC(=O)O` [Peptide 407], under “Table 6”, the “% Relative Potency Ratio” value stood at 4.4. As to `CC(C)C[C@H](NC(=O)[C@H](Cc1c[nH]c2ccccc12)NC(=O)[C@H](CCC(N)=O)NC(=O)[C@@H](NC(=O)[C@H](Cc1ccccc1)NC(=O)[C@H](CC(=O)O)NC(=O)[C@H](CCCNC(=N)N)NC(=O)[C@H](C)NC(=O)[C@H](CCCNC(=N)N)NC(=O)[C@H](CCCCNC(=O)COCCOCCNC(=O)COCCOCCNC(=O)CC[C@H](NC(=O)CCCCCCCCCCCCCCCCCCC(=O)O)C(=O)O)NC(=O)[C@@H](NC(=O)[C@H](CCC(=O)O)NC(=O)[C@H](CC(C)C)NC(=O)[C@](C)(Cc1ccccc1)NC(=O)[C@H](CCCCN)NC(=O)[C@H](CO)NC(=O)[C@@H](NC(=O)[C@H](CC(=O)O)NC(=O)[C@H](CO)NC(=O)[C@@H](NC(=O)[C@H](Cc1ccccc1)NC(=O)[C@@H](NC(=O)CNC(=O)[C@H](CCC(N)=O)NC(=O)C(C)(C)NC(=O)[C@@H](N)Cc1c[nH]cn1)[C@@H](C)O)[C@@H](C)O)C(C)C)[C@@H](C)O)C(C)C)C(=O)N[C@@H](CC(C)C)C(=O)N[C@@H](CCC(=O)O)C(=O)NC(C)(C)C(=O)NCC(=O)O` [Peptide 444], the “% Relative Potency Ratio” value (Table 6) is 14.1.

Broadly, the EC50 is the concentration at which the effect is half-maximal. `CC(C)C[C@H](NC(=O)[C@H](CC(C)C)NC(=O)[C@H](Cc1c[nH]c2ccccc12)NC(=O)[C@H](CCCNC(=N)N)NC(=O)[C@@H](NC(=O)[C@H](Cc1ccccc1)NC(=O)[C@H](CC(=O)O)NC(=O)[C@H](CCC(N)=O)NC(=O)[C@H](C)NC(=O)[C@H](CCCNC(=N)N)NC(=O)[C@H](CCCCNC(=O)COCCOCCNC(=O)COCCOCCNC(=O)CC[C@H](NC(=O)CCCCCCCCCCCCCCCCC(=O)O)C(=O)O)NC(=O)[C@H](CCCNC(=N)N)NC(=O)[C@H](CC(=O)O)NC(=O)[C@H](CC(C)C)NC(=O)[C@](C)(Cc1ccccc1)NC(=O)[C@H](CCCCN)NC(=O)[C@H](CO)NC(=O)[C@@H](NC(=O)[C@H](CC(=O)O)NC(=O)[C@H](CO)NC(=O)[C@@H](NC(=O)[C@H](Cc1ccccc1)NC(=O)[C@@H](NC(=O)CNC(=O)[C@H](CCC(N)=O)NC(=O)C(C)(C)NC(=O)[C@@H](N)Cc1c[nH]cn1)[C@@H](C)O)[C@@H](C)O)C(C)C)C(C)C)C(=O)N[C@@H](C)C(=O)N[C@@H](CCC(=O)O)C(N)=O` [Peptide 461] (H-H[Aib]QGTFTSDVSK[αMeF]LDRK([AEEA-AEEA-γGlu-C18 diacid])RAQDFVRWLLAE-NH2; N-terminus assumed): the EC50 (Table 6, peptides modified at position 17, cAMP in CHO hGLP-1R cells, geometric mean, read-out: hGLP-1R EC50) was 0.167 nM.
